{"source": "PubChem BioAssay (NCI)", "note": "Several values for one entry are separate records, joined by “and”; a condition that tells them apart may be missing. Identical values can stand only once.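 A five-concentration, 48-hour dose response in 96-well plates underlies each endpoint, interpolated linearly between surrounding concentrations. Abbreviation: GI50, concentration required for 50% inhibition of growth. TGI is the concentration that stops growth completely.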", "data": [{"test_system": "MDA-MB-231 breast", "assay": "NCI-60 cell line screen, 48 h", "units": {"GI50": "µM"}, "values": [{"compound": "O=C(O)c1cc(C(=O)O)cc(N2C(=O)c3ccccc3C2=O)c1", "TGI": "> 100 µM"}, {"compound": "O=C1NNC(=O)c2ccccc2SSc2ccccc2C(=O)NNC(=O)c2ccccc2SSc2ccccc21", "GI50": 11.4, "TGI": "50 µM and > 100 µM"}, {"compound": "COc1cc2nc(C)nc(N[C@H](C)c3cc(N)cc(C(F)(F)F)c3)c2cc1O[C@H]1CCOC1", "GI50": 12.1, "TGI": "28.6 µM"}, {"compound": "O=C1c2ccccc2C(=O)c2sc(Nc3cccc(Cl)c3)nc21", "GI50": 0.292, "TGI": "3.37 µM"}, {"compound": "CC1=C(C(=O)Nc2ccc(F)c(Cl)c2)C(c2ccc(Cl)cc2)NC(=O)N1", "note": "(stereo not drawn)", "GI50": 13.7, "TGI": "27.1 µM"}, {"compound": "Fc1ccc(Nc2ncnc3ccc(-c4cnc5[nH]ccc5c4)cc23)cc1Cl", "GI50": 2.03, "TGI": "6.06 µM"}, {"compound": "Oc1ccc(Cl)cc1-c1cc(-c2ccccc2Cl)[nH]n1", "GI50": 1.44, "TGI": "6.29 µM"}, {"compound": "CN(C)CCCNC1=C(Cl)C(=O)c2ccccc2C1=O", "GI50": 1.79, "TGI": "3.94 µM"}, {"compound": "O=C(Nc1ccc(F)cc1F)c1cc(I)ccc1O", "GI50": 1.87, "TGI": "5.8 µM"}, {"compound": "CCOc1ccccc1-n1c(CN2CCN(C(=O)COc3ccc(CNCCCCCCN4C5CCCC4CC(OC(=O)Nc4cc(C)ccc4OC)C5)cc3)CC2)nc2ccccc2c1=O", "note": "(stereo not drawn)", "GI50": 0.815, "TGI": "2.13 µM"}, {"compound": "COc1ccc(C2=CSc3cc(Cl)c(C)cc3S(=O)(=O)N2C(C)=O)cc1", "GI50": 14.5, "TGI": "37.9 µM"}, {"compound": "CC[C@@]12CCCN3CC[C@]4(c5cccc(OC)c5N(C(C)=O)[C@@H]4CC1)[C@H]32", "TGI": "> 100 µM"}, {"compound": "CC(=O)[O][Hg][c]1c(N)c(C)cc(C)c1F", "GI50": 1.17, "TGI": "2.64 µM"}, {"compound": "CSc1ccccc1C#C/C=C\\C#Cc1ccccc1N1CCCC1=O", "TGI": "> 50 µM"}, {"compound": "NC1CCC(Nc2nc(NCc3ccc(-c4ccco4)nc3)c3ncn(C4CCCC4)c3n2)CC1", "note": "(stereo not drawn)", "GI50": 0.0137}, {"compound": "CCCCCCCCSC1=CC(=O)c2nc3ccccc3c3ccnc1c23", "GI50": 5.94, "TGI": "> 100 µM"}, {"compound": "Cc1ccc(-c2nnc(-c3ccc4ccccc4c3)o2)cc1", "TGI": "> 100 µM"}, {"compound": "COc1ccc(-c2cc(-c3ccc(Nc4nc(Nc5ccccc5)nc(Nc5ccc(Cl)cc5)n4)cc3)nc(N)c2C#N)cc1", "GI50": 1.01, "TGI": "2.46 µM"}, {"compound": "O=c1n(CC2CO2)c(=O)n(CC2CO2)n1CC1CO1", "note": "(stereo not drawn)", "GI50": "> 96.4", "TGI": "> 100 µM"}]}, {"test_system": "MCF7 breast", "assay": "NCI-60 cell line screen, 48 h", "units": {"TGI": "µM", "GI50": "µM"}, "values": [{"compound": "Cc1nc2c(nc1C)C(=O)c1ccccc1C2=O", "TGI": 3.59}, {"compound": "O[C@H]1[C@H]2c3cc4c(cc3CN3CCC(=C[C@@H]1O)[C@H]23)OCO4", "TGI": 1.71}, {"compound": "O=C(O)c1cc(C(=O)O)cc(N2C(=O)c3ccccc3C2=O)c1", "TGI": "> 100"}, {"compound": "O=C1NNC(=O)c2ccccc2SSc2ccccc2C(=O)NNC(=O)c2ccccc2SSc2ccccc21", "TGI": "> 100"}, {"compound": "COc1cc2nc(C)nc(N[C@H](C)c3cc(N)cc(C(F)(F)F)c3)c2cc1O[C@H]1CCOC1", "GI50": 12.9, "TGI": 31.3}, {"compound": "O=C1c2ccccc2C(=O)c2sc(Nc3cccc(Cl)c3)nc21", "GI50": 0.596, "TGI": 2.46}, {"compound": "CC1=C(C(=O)Nc2ccc(F)c(Cl)c2)C(c2ccc(Cl)cc2)NC(=O)N1", "note": "(stereo not drawn)", "GI50": 18.4, "TGI": 44.9}, {"compound": "Fc1ccc(Nc2ncnc3ccc(-c4cnc5[nH]ccc5c4)cc23)cc1Cl", "GI50": 0.335, "TGI": "> 38"}, {"compound": "Oc1ccc(Cl)cc1-c1cc(-c2ccccc2Cl)[nH]n1", "GI50": 0.362, "TGI": "> 100"}, {"compound": "CN(C)CCCNC1=C(Cl)C(=O)c2ccccc2C1=O", "GI50": 1.61, "TGI": 3.53}, {"compound": "O=C(Nc1ccc(F)cc1F)c1cc(I)ccc1O", "GI50": 2.77, "TGI": "> 100"}, {"compound": "CCOc1ccccc1-n1c(CN2CCN(C(=O)COc3ccc(CNCCCCCCN4C5CCCC4CC(OC(=O)Nc4cc(C)ccc4OC)C5)cc3)CC2)nc2ccccc2c1=O", "note": "(stereo not drawn)", "GI50": 0.75, "TGI": 2.06}, {"compound": "COc1ccc(C2=CSc3cc(Cl)c(C)cc3S(=O)(=O)N2C(C)=O)cc1", "GI50": 46.2, "TGI": "> 100"}, {"compound": "CC[C@@]12CCCN3CC[C@]4(c5cccc(OC)c5N(C(C)=O)[C@@H]4CC1)[C@H]32", "TGI": "> 100"}, {"compound": "CC(=O)[O][Hg][c]1c(N)c(C)cc(C)c1F", "GI50": 0.665, "TGI": 2.99}, {"compound": "CSc1ccccc1C#C/C=C\\C#Cc1ccccc1N1CCCC1=O", "TGI": "> 50"}, {"compound": "NC1CCC(Nc2nc(NCc3ccc(-c4ccco4)nc3)c3ncn(C4CCCC4)c3n2)CC1", "note": "(stereo not drawn)", "GI50": 0.0267, "TGI": 1.22}, {"compound": "CCCCCCCCSC1=CC(=O)c2nc3ccccc3c3ccnc1c23", "GI50": 20.2, "TGI": 57.4}, {"compound": "Cc1ccc(-c2nnc(-c3ccc4ccccc4c3)o2)cc1", "TGI": "> 100"}, {"compound": "COc1ccc(-c2cc(-c3ccc(Nc4nc(Nc5ccccc5)nc(Nc5ccc(Cl)cc5)n4)cc3)nc(N)c2C#N)cc1", "GI50": 0.941, "TGI": "> 50"}, {"compound": "O=c1n(CC2CO2)c(=O)n(CC2CO2)n1CC1CO1", "note": "(stereo not drawn)", "GI50": 3.68, "TGI": "> 100"}, {"compound": "c1cc2c(cc1NC1=NCCO1)CCC2", "TGI": "> 10"}]}, {"test_system": "MDA-N", "assay": "NCI-60 cell line screen, 48 h", "units": {"GI50": "µM"}, "values": [{"compound": "Cc1nc2c(nc1C)C(=O)c1ccccc1C2=O", "TGI": "0.562 µM"}, {"compound": "O[C@H]1[C@H]2c3cc4c(cc3CN3CCC(=C[C@@H]1O)[C@H]23)OCO4", "TGI": "26.7 µM"}, {"compound": "O=C(O)c1cc(C(=O)O)cc(N2C(=O)c3ccccc3C2=O)c1", "TGI": "> 100 µM"}, {"compound": "O=C1NNC(=O)c2ccccc2SSc2ccccc2C(=O)NNC(=O)c2ccccc2SSc2ccccc21", "GI50": 11.9, "TGI": "50 µM and > 100 µM"}, {"compound": "CC[C@@]12CCCN3CC[C@]4(c5cccc(OC)c5N(C(C)=O)[C@@H]4CC1)[C@H]32", "TGI": "> 100 µM"}, {"compound": "Cc1ccc(-c2nnc(-c3ccc4ccccc4c3)o2)cc1", "TGI": "> 100 µM"}, {"compound": "c1cc2c(cc1NC1=NCCO1)CCC2", "TGI": "> 10 µM"}]}, {"test_system": "BT-549 breast", "assay": "NCI-60 cell line screen, 48 h", "units": {"GI50": "µM"}, "values": [{"compound": "Cc1nc2c(nc1C)C(=O)c1ccccc1C2=O", "TGI": "3.15 µM"}, {"compound": "O[C@H]1[C@H]2c3cc4c(cc3CN3CCC(=C[C@@H]1O)[C@H]23)OCO4", "TGI": "5.43 µM"}, {"compound": "O=C(O)c1cc(C(=O)O)cc(N2C(=O)c3ccccc3C2=O)c1", "TGI": "> 100 µM"}, {"compound": "O=C1NNC(=O)c2ccccc2SSc2ccccc2C(=O)NNC(=O)c2ccccc2SSc2ccccc21", "GI50": 14.1, "TGI": "50 µM and > 100 µM"}, {"compound": "COc1cc2nc(C)nc(N[C@H](C)c3cc(N)cc(C(F)(F)F)c3)c2cc1O[C@H]1CCOC1", "GI50": 11.5, "TGI": "24.2 µM"}, {"compound": "O=C1c2ccccc2C(=O)c2sc(Nc3cccc(Cl)c3)nc21", "GI50": 1.67, "TGI": "3.04 µM"}, {"compound": "CC1=C(C(=O)Nc2ccc(F)c(Cl)c2)C(c2ccc(Cl)cc2)NC(=O)N1", "note": "(stereo not drawn)", "GI50": 14.6, "TGI": "32.6 µM"}, {"compound": "Fc1ccc(Nc2ncnc3ccc(-c4cnc5[nH]ccc5c4)cc23)cc1Cl", "GI50": 3.11, "TGI": "> 27.9 µM"}, {"compound": "Oc1ccc(Cl)cc1-c1cc(-c2ccccc2Cl)[nH]n1", "GI50": 36, "TGI": "> 100 µM"}, {"compound": "CN(C)CCCNC1=C(Cl)C(=O)c2ccccc2C1=O", "GI50": 2.14, "TGI": "4.96 µM"}, {"compound": "O=C(Nc1ccc(F)cc1F)c1cc(I)ccc1O", "GI50": 1.99, "TGI": "5.16 µM"}, {"compound": "CCOc1ccccc1-n1c(CN2CCN(C(=O)COc3ccc(CNCCCCCCN4C5CCCC4CC(OC(=O)Nc4cc(C)ccc4OC)C5)cc3)CC2)nc2ccccc2c1=O", "note": "(stereo not drawn)", "GI50": 1.72, "TGI": "3.26 µM"}, {"compound": "COc1ccc(C2=CSc3cc(Cl)c(C)cc3S(=O)(=O)N2C(C)=O)cc1", "GI50": 29.9, "TGI": "> 100 µM"}, {"compound": "CC[C@@]12CCCN3CC[C@]4(c5cccc(OC)c5N(C(C)=O)[C@@H]4CC1)[C@H]32", "TGI": "> 100 µM"}, {"compound": "CC(=O)[O][Hg][c]1c(N)c(C)cc(C)c1F", "GI50": 2.22, "TGI": "5.29 µM"}, {"compound": "CSc1ccccc1C#C/C=C\\C#Cc1ccccc1N1CCCC1=O", "TGI": "> 45.4 µM"}, {"compound": "NC1CCC(Nc2nc(NCc3ccc(-c4ccco4)nc3)c3ncn(C4CCCC4)c3n2)CC1", "note": "(stereo not drawn)", "GI50": 0.0264, "TGI": "0.0746 µM"}, {"compound": "CCCCCCCCSC1=CC(=O)c2nc3ccccc3c3ccnc1c23", "GI50": "> 100", "TGI": "> 100 µM"}, {"compound": "Cc1ccc(-c2nnc(-c3ccc4ccccc4c3)o2)cc1", "TGI": "> 93.5 µM"}, {"compound": "COc1ccc(-c2cc(-c3ccc(Nc4nc(Nc5ccccc5)nc(Nc5ccc(Cl)cc5)n4)cc3)nc(N)c2C#N)cc1", "GI50": 0.822, "TGI": "2.49 µM"}, {"compound": "O=c1n(CC2CO2)c(=O)n(CC2CO2)n1CC1CO1", "note": "(stereo not drawn)", "GI50": 27.8, "TGI": "> 100 µM"}]}]}
